Among the data in BindingDB's records for PubMed 20126400 (University of Oklahoma, 2010) are Ki values, retold here.

pKi: −log10 of the molar value.

For one test, the target named is Cannabinoid receptor 2 (Homo sapiens, UniProt P34972). In words: Ray2010 Assay 74. The source says: (§1) Table S2 shows raw Ki data for the current study combined with data collected from the literature for the ten additional compounds.
The next test concerns the target Histamine H3 receptor (Homo sapiens, UniProt Q9Y5N1). In words: Ray2010 Assay 74.
Excerpt: as §1

The target in test [1] is Beta-2 adrenergic receptor (Homo sapiens, UniProt P07550). In words: Ray2010 Assay 74.
Excerpt: as §1

Test [2] has as its target 5-hydroxytryptamine receptor 7 (Homo sapiens, UniProt P34969). Description: Ray2010 Assay 74.
Excerpt: as §1

In a further test the target is Cannabinoid receptor 1 (Homo sapiens, UniProt P21554). In words: Ray2010 Assay 74.
Cannabinoid receptor 1, sequence (P21554 whole entry): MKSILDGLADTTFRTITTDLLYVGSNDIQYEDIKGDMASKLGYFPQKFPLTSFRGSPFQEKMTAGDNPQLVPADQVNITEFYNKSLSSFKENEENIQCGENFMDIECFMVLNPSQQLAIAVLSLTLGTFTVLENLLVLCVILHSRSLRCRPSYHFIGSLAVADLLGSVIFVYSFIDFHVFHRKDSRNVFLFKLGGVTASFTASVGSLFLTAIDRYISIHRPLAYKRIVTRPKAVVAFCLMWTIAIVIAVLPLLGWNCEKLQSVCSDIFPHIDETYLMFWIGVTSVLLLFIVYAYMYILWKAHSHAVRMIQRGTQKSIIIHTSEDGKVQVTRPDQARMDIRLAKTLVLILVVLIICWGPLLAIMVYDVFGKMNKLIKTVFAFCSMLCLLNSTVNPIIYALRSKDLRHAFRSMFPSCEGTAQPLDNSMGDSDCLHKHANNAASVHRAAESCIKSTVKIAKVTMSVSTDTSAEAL
Excerpt: as §1

Test [3] has as its target ATP-dependent translocase ABCB1 (Homo sapiens, UniProt P08183). Description: Ray2010 Assay 74.
Excerpt: as §1

Test [4] deals with Gamma-aminobutyric acid receptor subunit beta-1 (Homo sapiens, UniProt P18505). In words: Ray2010 Assay 74.
Excerpt: as §1

Test [5] concerns the target Muscarinic acetylcholine receptor M3 (Homo sapiens, UniProt P20309). Description: Ray2010 Assay 74.
Excerpt: as §1

For test [6], the target named is T1, 5-hydroxytryptamine receptor 2C (Homo sapiens, UniProt P28335).
T1 sequence (P28335 whole entry): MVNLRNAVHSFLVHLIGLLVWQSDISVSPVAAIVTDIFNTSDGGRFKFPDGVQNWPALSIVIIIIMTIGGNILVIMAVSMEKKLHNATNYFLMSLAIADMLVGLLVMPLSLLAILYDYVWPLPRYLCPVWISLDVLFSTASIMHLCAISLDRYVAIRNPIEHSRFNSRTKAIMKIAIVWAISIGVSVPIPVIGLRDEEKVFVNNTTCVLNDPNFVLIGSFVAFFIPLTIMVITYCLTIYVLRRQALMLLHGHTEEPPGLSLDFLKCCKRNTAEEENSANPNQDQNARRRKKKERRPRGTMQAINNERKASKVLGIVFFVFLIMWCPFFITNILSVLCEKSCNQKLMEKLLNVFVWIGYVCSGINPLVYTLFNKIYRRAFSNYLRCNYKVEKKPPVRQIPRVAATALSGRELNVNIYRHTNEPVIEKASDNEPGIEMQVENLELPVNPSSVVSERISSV
In words: Ray2010 Assay 74.
Excerpt: as §1

The next test deals with Glutamate receptor 4 (Homo sapiens, UniProt P48058). In words: Ray2010 Assay 74.
Excerpt: as §1

The target of test [7] is T2, Glutamate receptor ionotropic, NMDA 2D (Rattus norvegicus, UniProt Q62645). In words: Ray2010 Assay 65. An excerpt: MK-801 spinal cord .
The target of test [8] is Gamma-aminobutyric acid receptor subunit alpha-1 (Bos taurus, UniProt P08219). In words: Ray2010 Assay 70. The source says: muscimol cortex .
In test [9] the target is 5-hydroxytryptamine receptor 2A (Rattus norvegicus, UniProt P14842). In words: Ray2010 Assay 25. The source says:
ketanserin cloned PDSP web; .

The target in test [10] is T2, Glutamate receptor ionotropic, NMDA 2D. Description: Ray2010 Assay 68. The source says: MK-801 basal forebrain .
For test [11], the target named is 5-hydroxytryptamine receptor 1D (UniProt F1MMU1). In words: Ray2010 Assay 30. The source says: 5-HT caudate .
For test [12], the target named is Muscarinic acetylcholine receptor M2 (Bos taurus, UniProt P41985). Description: Ray2010 Assay 49. An excerpt:
QBN cortex .

For test [13], the target named is Neuronal acetylcholine receptor subunit alpha-2/beta-4 (Homo sapiens, UniProt Q15822+P30926). In words: Ray2010 Assay 74.
Excerpt: as §1

Test [14] addresses Neuronal acetylcholine receptor subunit alpha-3/beta-2 (Homo sapiens, UniProt P17787+P32297). In words: Ray2010 Assay 74.
Excerpt: as §1

For test [15], the target named is Neuronal acetylcholine receptor subunit alpha-2/beta-2 (Homo sapiens, UniProt P17787+Q15822). In words: Ray2010 Assay 74.
Neuronal acetylcholine receptor subunit alpha-2/beta-2, sequence (P17787 whole entry): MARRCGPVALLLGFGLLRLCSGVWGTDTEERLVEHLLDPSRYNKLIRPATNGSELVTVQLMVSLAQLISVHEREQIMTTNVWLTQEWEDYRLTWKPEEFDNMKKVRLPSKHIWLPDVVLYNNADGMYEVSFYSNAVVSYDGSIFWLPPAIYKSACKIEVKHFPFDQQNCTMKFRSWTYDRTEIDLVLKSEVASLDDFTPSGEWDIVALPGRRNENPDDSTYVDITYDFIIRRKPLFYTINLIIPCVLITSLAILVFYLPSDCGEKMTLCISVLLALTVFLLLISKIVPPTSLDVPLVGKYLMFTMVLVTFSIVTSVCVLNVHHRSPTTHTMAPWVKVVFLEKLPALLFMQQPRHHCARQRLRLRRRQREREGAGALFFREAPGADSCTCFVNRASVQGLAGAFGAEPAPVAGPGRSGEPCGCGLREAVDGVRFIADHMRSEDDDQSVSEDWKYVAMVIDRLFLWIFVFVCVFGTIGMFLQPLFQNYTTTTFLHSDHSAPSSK
Neuronal acetylcholine receptor subunit alpha-2/beta-2, sequence (Q15822 whole entry): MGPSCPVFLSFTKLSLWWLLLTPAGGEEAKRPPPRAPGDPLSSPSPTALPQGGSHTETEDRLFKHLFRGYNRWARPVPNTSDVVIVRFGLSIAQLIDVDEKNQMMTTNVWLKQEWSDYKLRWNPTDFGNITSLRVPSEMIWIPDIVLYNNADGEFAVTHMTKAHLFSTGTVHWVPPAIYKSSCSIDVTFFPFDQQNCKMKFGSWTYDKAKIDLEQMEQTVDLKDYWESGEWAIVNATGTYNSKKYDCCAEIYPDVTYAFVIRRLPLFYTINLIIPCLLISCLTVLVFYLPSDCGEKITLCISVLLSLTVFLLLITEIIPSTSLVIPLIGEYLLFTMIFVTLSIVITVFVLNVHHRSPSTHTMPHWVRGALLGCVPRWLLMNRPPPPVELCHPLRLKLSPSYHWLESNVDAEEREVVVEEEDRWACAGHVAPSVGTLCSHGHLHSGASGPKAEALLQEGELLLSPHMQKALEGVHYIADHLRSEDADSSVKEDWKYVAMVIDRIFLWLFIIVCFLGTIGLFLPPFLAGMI
Excerpt: as §1

The target of test [16] is Alpha-2B adrenergic receptor (Homo sapiens, UniProt P18089). In words: Ray2010 Assay 74.
Excerpt: as §1

The target in test [17] is Neuronal acetylcholine receptor subunit alpha-4/beta-2 (Mus musculus, UniProt O70174+Q9ERK7). In words: Ray2010 Assay 74.
Excerpt: as §1

Test [18] addresses Metabotropic glutamate receptor 5 (Homo sapiens, UniProt P41594). Description: Ray2010 Assay 74.
Excerpt: as §1

In test [19] the target is Metabotropic glutamate receptor 1 (Homo sapiens, UniProt Q13255). Description: Ray2010 Assay 74.
Excerpt: as §1

The target in test [20] is Voltage-dependent calcium channel subunit alpha-2/delta-1 (Homo sapiens, UniProt P54289). In words: Ray2010 Assay 74.
Excerpt: as §1

Test [21] addresses Neuronal acetylcholine receptor subunit alpha-2/beta-4 (Homo sapiens, UniProt P30926+Q15822). Description: Ray2010 Assay 74.
Excerpt: as §1

Test [22] concerns the target Metabotropic glutamate receptor 4 (Homo sapiens, UniProt Q14833). Description: Ray2010 Assay 74.
Excerpt: as §1

Test [23] deals with Metabotropic glutamate receptor 2 (Homo sapiens, UniProt Q14416). In words: Ray2010 Assay 74.
Excerpt: as §1

Test [24] addresses T3, Prostaglandin E2 receptor EP3 subtype (Homo sapiens, UniProt P43115).
T3 sequence (P43115 whole entry): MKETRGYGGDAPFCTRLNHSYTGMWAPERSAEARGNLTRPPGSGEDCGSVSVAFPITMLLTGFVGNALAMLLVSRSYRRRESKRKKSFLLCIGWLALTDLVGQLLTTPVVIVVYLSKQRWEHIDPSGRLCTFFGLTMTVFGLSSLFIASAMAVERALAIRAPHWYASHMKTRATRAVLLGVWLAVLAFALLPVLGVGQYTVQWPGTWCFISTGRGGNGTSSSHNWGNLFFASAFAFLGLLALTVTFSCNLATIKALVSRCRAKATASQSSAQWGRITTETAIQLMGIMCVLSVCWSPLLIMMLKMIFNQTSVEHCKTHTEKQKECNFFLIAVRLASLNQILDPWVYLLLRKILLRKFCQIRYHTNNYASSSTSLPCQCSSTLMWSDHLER
Description: Ray2010 Assay 74.
Excerpt: as §1

For test [25], the target named is Neuronal acetylcholine receptor subunit alpha-4/beta-4 (Homo sapiens, UniProt P30926+P43681). Description: Ray2010 Assay 74.
Excerpt: as §1

5-hydroxytryptamine receptor 7, sequence (P34969 whole entry): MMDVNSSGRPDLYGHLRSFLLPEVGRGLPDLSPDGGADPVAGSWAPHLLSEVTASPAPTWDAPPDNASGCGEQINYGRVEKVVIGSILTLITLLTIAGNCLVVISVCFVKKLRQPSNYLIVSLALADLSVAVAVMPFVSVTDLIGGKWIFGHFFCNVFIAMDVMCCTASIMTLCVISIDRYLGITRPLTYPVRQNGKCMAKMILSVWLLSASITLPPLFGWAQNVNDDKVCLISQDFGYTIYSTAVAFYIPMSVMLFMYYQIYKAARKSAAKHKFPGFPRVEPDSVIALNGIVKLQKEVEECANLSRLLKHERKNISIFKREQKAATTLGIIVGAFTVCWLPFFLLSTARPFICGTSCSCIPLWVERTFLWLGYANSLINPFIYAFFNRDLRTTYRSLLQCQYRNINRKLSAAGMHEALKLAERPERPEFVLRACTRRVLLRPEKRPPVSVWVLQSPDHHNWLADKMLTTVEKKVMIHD
Histamine H3 receptor, sequence (Q9Y5N1 whole entry): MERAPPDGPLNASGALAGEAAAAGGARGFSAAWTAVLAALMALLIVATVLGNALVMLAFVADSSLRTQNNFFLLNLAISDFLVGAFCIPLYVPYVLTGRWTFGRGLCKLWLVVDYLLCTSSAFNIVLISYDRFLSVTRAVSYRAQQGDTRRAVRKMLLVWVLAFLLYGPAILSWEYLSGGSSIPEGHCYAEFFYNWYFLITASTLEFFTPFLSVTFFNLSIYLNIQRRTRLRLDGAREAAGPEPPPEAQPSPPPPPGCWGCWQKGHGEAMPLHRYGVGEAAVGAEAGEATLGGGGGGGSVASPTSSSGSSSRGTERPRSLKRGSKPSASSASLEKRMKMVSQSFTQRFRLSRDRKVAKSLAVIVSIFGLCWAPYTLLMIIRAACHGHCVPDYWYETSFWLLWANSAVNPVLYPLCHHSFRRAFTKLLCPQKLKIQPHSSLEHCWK
Cannabinoid receptor 2, sequence (P34972 whole entry): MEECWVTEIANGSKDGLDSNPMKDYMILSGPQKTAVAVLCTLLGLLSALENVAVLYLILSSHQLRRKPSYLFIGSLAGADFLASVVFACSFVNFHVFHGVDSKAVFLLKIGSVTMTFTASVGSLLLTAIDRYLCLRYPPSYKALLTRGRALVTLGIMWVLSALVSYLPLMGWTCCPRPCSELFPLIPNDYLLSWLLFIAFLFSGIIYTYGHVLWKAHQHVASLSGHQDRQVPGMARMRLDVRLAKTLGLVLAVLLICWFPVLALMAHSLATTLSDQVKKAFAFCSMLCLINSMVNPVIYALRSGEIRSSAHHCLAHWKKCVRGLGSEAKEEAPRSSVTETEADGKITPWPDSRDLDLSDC
Muscarinic acetylcholine receptor M3, sequence (P20309 whole entry): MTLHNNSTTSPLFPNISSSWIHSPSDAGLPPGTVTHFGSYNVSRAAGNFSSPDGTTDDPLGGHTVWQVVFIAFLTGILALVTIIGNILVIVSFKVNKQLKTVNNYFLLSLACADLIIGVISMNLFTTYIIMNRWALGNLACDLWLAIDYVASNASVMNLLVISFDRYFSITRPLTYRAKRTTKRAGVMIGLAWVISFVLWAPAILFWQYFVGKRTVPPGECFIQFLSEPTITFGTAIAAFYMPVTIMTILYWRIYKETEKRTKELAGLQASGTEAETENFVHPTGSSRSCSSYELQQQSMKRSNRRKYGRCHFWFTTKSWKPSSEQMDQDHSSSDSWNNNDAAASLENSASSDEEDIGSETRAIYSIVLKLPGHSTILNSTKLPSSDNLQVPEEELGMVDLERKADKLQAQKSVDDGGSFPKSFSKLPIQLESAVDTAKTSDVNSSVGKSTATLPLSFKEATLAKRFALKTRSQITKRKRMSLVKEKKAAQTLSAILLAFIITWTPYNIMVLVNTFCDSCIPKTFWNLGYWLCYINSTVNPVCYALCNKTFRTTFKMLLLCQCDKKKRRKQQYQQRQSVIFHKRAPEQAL
ATP-dependent translocase ABCB1, sequence (P08183 whole entry): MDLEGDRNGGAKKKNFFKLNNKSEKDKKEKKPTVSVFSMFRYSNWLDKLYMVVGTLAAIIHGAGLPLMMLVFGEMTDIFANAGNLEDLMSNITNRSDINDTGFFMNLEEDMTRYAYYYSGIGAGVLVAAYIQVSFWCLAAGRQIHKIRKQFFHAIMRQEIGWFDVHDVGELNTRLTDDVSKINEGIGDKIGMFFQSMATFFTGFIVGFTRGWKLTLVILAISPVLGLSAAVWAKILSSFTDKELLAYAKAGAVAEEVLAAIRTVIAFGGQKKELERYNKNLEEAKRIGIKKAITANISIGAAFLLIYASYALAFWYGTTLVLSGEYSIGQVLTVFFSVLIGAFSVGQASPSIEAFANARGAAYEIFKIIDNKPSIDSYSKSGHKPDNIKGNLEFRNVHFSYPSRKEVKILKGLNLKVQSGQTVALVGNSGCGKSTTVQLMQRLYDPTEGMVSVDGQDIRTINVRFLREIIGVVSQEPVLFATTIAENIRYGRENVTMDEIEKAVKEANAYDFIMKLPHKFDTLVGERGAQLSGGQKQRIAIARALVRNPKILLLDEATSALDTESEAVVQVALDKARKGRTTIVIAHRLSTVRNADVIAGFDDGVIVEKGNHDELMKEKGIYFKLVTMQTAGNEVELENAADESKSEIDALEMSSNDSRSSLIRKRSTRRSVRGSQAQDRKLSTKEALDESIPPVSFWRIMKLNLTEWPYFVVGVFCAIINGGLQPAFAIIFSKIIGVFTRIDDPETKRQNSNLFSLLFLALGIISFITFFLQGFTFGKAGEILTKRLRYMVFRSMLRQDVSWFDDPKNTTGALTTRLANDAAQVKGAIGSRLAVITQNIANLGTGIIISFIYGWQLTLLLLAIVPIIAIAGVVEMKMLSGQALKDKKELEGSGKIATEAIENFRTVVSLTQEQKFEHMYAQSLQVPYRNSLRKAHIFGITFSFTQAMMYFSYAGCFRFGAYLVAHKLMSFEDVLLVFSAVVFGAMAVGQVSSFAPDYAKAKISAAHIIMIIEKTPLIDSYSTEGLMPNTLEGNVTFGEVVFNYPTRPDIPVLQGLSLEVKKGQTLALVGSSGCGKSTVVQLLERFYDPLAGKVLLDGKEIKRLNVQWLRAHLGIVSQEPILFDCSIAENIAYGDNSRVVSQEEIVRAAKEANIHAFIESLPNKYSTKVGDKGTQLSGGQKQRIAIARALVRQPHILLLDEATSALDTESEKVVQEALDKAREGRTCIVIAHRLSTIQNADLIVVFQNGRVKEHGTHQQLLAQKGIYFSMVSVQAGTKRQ

As for `COc1cc(CC(C)N)cc(OC)c1OC` (configuration not stated), the pKi at Cannabinoid receptor 2 is below 5.00; on Histamine H3 receptor, below 5.00; in [1], below 5.00; in test [2], 6.13; at Cannabinoid receptor 1, below 5.00; in [3] it was below 5.00.

With `CC[C@H]1C[C@@H]2C[C@H]3c4[nH]c5ccc(OC)cc5c4CCN(C2)[C@@H]13`, the pKi was below 5.00 in test [4]; 4.90 in test [5]; below 5.00 in [6]; below 5.00 on Glutamate receptor 4; 5.65 in [7]; below 4.00 in test [8]. The pKi in test [9] is below 5.00; in test [10] it was 5.41; in [11] it was below 4.00; in test [12] it was 4.51.

On to “CAS_82830-44-2::(2R)-1-(4-iodo-2,5-dimethoxyphenyl)propan-2-amine::DOI,(-)::US20250270173, Compound DOI”, for which the pKi at Cannabinoid receptor 2 was below 5.00; on Histamine H3 receptor, below 5.00; in [13], below 5.00; in test [14], below 5.00; in test [15], below 5.00; in test [16], 6.47. For the same compound, the pKi in [1] is 6.86; in test [5] it was 5.85; in test [2] it was 5.24; at Cannabinoid receptor 1 it was below 5.00; in test [17], below 5.00; in test [6], 7.34.

In the case of `CNC(C)Cc1ccc2c(c1)OCO2` (configuration not stated) [mdma], the pKi in [18] is below 5.00; in test [19], below 5.00; in test [14], below 5.00; in [15], below 5.00; in test [4] it was below 5.00; in test [20], 5.92. The pKi (in [1]; in test [21]; in [2]; on Cannabinoid receptor 1; in test [22]; in test [23]) was below 5.00 throughout. Also, the pKi in test [24] and in test [25] was below 5.00 in each case.

As for `CCc1cc(OC)c(CC(C)N)cc1OC` (configuration not stated), the negative-log Ki (pKi) is below 5.00 on Cannabinoid receptor 2; below 5.00 at Histamine H3 receptor; 5.91 in test [2]; below 5.00 on Cannabinoid receptor 1; below 5.00 in test [3].
